Values quoted from earlier work, collected in paper PMC12440824, “Chimeric deubiquitinase engineering reveals structural basis for specific inhibition of the mitophagy regulator USP30” (Nature Structural & Molecular Biology, 2025).
Where two headings read alike, the source gives them in different places.

Tests used:
[1] = test system: recombinant USP30; conditions: literature values in Extended Data Fig. 1; ref Extended Data Fig. 1; read-out: Ub-Rho IC50; cited from earlier work
[2] = test system: USP30; conditions: literature values in Fig. 1b / Extended Data Fig. 1; ref Extended Data Fig. 1; read-out: Cellular ABPP IC50; cited from earlier work
[3] = test system: USP30; parameters: method as in Extended Data Fig. 1; conditions: ref Extended Data Fig. 1; read-out: Tetra-Ub cleavage IC50; cited from earlier work

SMILES: N#Cc1cccc(-c2nnc(C(=O)NC3CC(CF)N(C#N)C3)o2)c1 (stereo not shown) [Example 3]
- IC50 [1]: 13 nM

SMILES: N#CN1CC[C@@H](NC(=O)c2cc(-c3ccccc3Oc3ccccc3)n[nH]2)C1 [FT385]
- IC50 [2]: ~60 nM
- IC50 [1]: 2 nM

SMILES: COc1cc(NC(=O)[C@H](Cc2ccccc2)NC(=O)c2ccc(F)cc2)ccc1S(=O)(=O)NC1CCOCC1 [I-150]
- IC50 [1]: < 50 nM

SMILES: CC(C)(C)NS(=O)(=O)c1cccc2c(NC(=O)[C@H](Cc3ccccc3)NC(=O)C3CCCCC3)cccc12 [MF-094]
- IC50 [2]: < 200 nM
- IC50 [1]: 120 nM

SMILES: C=C1C(=O)C23CCC1CC2C12CCCC(C)(COC1=O)C2CC3O (stereo not shown) [S3]
- IC50 [3]: 10000 to 50000 nM
